Data reported in paper PMC6986443, “T‐495, a novel low cooperative M1 receptor positive allosteric modulator, improves memory deficits associated with cholinergic dysfunction and is characterized by low gastrointestinal side effect risk” (Pharmacology Research & Perspectives, 2020).

Legend:
Assay in all cases: Selectivity panel
Type in all cases: binding
Endothelin ETA = target: T1, Endothelin ETA (Homo sapiens, UniProt P25101)
T1 construct: purchased Eurofins Panlabs Taiwan Ltd
Source text: (§1) The selectivity of T‐495 at 10 μmol/L against a panel of 106 targets, including receptors, enzymes, ion channels, and transporters, was characterized (Eurofins Panlabs Taiwan Ltd., Taipei, Taiwan).

Muscarinic M2 = target: T2, Muscarinic M2 (Homo sapiens, UniProt P08172)
T2 construct: purchased Eurofins Panlabs Taiwan Ltd
Source text: as §1

[1] = tested on: GABAA, flunitrazepam, central
Source text: as §1

Cannabinoid CB2 = target: T3, Cannabinoid CB2 (Homo sapiens, UniProt P34972)
T3 construct: purchased Eurofins Panlabs Taiwan Ltd
T3 sequence (P34972 whole entry): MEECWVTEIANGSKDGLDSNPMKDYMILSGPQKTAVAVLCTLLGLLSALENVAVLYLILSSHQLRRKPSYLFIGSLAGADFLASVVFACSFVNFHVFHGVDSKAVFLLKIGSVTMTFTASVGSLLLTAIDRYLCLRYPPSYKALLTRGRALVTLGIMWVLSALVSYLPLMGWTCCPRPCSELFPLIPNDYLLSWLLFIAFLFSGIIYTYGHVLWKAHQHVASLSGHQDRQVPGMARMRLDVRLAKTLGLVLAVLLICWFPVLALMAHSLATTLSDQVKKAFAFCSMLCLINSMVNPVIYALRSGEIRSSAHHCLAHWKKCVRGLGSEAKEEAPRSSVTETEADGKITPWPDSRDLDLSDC
Source text: as §1

Dopamine D4.2 = tested on: Dopamine D4.2
Source text: as §1

GABAA, chloride channel = tested on: GABAA, chloride channel
Source text: as §1

[2] = tested on: Adrenergic α1, non-selective
Source text: as §1

Histamine H2 = target: T4, Histamine H2 (Homo sapiens, UniProt P25021)
T4 construct: purchased Eurofins Panlabs Taiwan Ltd
Source text: as §1

Potassium channel (SKCA) = tested on: Potassium channel (SKCA)
Source text: as §1

Adenosine A1 = target: T5, Adenosine A1 (Homo sapiens, UniProt P30542)
T5 construct: purchased Eurofins Panlabs Taiwan Ltd
Source text: as §1

[3] = target: T6, Growth hormone secretagogue (ghrelin) (Homo sapiens, UniProt Q92847)
T6 construct: purchased Eurofins Panlabs Taiwan Ltd
Source text: as §1

Angiotensin AT1 = target: T7, Angiotensin AT1 (Homo sapiens, UniProt P30556)
T7 construct: purchased Eurofins Panlabs Taiwan Ltd
Source text: as §1

Transporter, GABA = tested on: Transporter, GABA
Source text: as §1

Vasopressin V2 = target: T8, Vasopressin V2 (Homo sapiens, UniProt P30518)
T8 construct: purchased Eurofins Panlabs Taiwan Ltd
T8 sequence (P30518 whole entry): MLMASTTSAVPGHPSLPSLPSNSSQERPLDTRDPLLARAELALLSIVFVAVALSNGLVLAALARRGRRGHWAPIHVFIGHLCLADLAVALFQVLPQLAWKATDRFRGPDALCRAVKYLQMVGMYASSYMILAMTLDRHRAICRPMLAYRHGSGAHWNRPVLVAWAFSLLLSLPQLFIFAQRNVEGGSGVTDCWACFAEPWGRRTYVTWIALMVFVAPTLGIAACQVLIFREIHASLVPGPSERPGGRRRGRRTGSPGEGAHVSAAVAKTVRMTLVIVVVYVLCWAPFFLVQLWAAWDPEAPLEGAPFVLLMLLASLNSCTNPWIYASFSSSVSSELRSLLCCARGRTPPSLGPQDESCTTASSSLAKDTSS
Source text: as §1

Androgen (testosterone) = tested on: Androgen (testosterone)
Source text: as §1

Opiate δ1 (OP1, DOP) = target: T9, Opiate δ1 (OP1, DOP) (Homo sapiens, UniProt P41143)
T9 construct: purchased Eurofins Panlabs Taiwan Ltd
Source text: as §1

Sodium channel, Site 2 = tested on: Sodium channel, Site 2
Source text: as §1

Serotonin 5-HT2C = target: T10, Serotonin 5-HT2C (Homo sapiens, UniProt P28335)
T10 construct: purchased Eurofins Panlabs Taiwan Ltd
T10 sequence (P28335 33-458): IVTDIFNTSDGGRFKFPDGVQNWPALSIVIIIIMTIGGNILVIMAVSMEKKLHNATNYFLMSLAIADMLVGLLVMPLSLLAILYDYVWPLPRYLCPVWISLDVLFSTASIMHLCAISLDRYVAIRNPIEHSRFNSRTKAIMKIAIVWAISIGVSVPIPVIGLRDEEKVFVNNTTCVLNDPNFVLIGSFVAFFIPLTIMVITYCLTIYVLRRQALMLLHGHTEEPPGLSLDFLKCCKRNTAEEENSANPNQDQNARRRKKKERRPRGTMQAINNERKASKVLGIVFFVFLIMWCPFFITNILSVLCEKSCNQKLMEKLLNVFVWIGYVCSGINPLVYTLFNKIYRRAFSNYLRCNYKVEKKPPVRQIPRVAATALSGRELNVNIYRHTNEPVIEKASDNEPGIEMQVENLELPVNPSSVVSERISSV
Source text: as §1

Dopamine D3 = target: T11, Dopamine D3 (Homo sapiens, UniProt P35462)
T11 construct: purchased Eurofins Panlabs Taiwan Ltd
Source text: as §1

[4] = tested on: Calcium channel L-type, dihydropyridine
Source text: as §1

Sigma, non-selective = tested on: Sigma, non-selective
Source text: as §1

Serotonin 5-HT2B = target: T12, Serotonin 5-HT2B (Homo sapiens, UniProt P41595)
T12 construct: purchased Eurofins Panlabs Taiwan Ltd
T12 sequence (P41595 whole entry): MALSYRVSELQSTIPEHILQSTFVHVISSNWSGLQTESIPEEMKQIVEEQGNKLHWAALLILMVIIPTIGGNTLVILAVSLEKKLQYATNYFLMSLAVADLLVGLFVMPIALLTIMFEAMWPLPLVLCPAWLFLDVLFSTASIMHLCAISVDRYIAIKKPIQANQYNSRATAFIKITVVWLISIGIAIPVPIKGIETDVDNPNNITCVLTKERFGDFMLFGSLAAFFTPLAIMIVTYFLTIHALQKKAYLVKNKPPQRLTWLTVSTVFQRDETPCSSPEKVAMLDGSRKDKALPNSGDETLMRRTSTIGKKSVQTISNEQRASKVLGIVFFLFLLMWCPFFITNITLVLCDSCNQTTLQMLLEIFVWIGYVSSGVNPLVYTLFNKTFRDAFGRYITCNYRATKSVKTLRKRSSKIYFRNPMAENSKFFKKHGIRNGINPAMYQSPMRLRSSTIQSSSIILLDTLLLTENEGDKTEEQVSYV
Source text: as §1

Adrenergic β3 = target: T13, Adrenergic β3 (Homo sapiens, UniProt P13945)
T13 construct: purchased Eurofins Panlabs Taiwan Ltd
Source text: as §1

Adrenergic β1 = target: T14, Adrenergic β1 (Homo sapiens, UniProt P08588)
T14 construct: purchased Eurofins Panlabs Taiwan Ltd
Source text: as §1

Muscarinic M3 = target: T15, Muscarinic M3 (Homo sapiens, UniProt P20309)
T15 construct: purchased Eurofins Panlabs Taiwan Ltd
T15 sequence (P20309 whole entry): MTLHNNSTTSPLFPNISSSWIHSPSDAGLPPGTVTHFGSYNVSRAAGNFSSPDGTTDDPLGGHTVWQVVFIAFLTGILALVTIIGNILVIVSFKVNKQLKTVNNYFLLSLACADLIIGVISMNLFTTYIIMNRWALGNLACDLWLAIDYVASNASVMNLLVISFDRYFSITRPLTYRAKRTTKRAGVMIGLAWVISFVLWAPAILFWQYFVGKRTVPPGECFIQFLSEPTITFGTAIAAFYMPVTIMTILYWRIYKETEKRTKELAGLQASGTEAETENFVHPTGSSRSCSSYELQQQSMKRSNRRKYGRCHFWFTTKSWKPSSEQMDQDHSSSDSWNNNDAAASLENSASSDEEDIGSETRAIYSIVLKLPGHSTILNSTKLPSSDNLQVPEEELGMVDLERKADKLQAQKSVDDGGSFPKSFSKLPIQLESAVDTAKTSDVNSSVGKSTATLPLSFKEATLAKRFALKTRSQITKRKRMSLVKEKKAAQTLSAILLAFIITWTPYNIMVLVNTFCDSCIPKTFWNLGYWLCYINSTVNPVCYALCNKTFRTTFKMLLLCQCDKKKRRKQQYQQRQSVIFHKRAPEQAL
Source text: as §1

Adenosine A2B = target: T16, Adenosine A2B (Homo sapiens, UniProt P29275)
T16 construct: purchased Eurofins Panlabs Taiwan Ltd
Source text: as §1

[5] = tested on: Estrogen Receptor (non-selective)
Source text: as §1

GABAA, muscimol, central = tested on: GABAA, muscimol, central
Source text: as §1

Glucocorticoid = target: T17, Glucocorticoid (Homo sapiens, UniProt P04150)
T17 construct: purchased Eurofins Panlabs Taiwan Ltd
T17 sequence (P04150 whole entry): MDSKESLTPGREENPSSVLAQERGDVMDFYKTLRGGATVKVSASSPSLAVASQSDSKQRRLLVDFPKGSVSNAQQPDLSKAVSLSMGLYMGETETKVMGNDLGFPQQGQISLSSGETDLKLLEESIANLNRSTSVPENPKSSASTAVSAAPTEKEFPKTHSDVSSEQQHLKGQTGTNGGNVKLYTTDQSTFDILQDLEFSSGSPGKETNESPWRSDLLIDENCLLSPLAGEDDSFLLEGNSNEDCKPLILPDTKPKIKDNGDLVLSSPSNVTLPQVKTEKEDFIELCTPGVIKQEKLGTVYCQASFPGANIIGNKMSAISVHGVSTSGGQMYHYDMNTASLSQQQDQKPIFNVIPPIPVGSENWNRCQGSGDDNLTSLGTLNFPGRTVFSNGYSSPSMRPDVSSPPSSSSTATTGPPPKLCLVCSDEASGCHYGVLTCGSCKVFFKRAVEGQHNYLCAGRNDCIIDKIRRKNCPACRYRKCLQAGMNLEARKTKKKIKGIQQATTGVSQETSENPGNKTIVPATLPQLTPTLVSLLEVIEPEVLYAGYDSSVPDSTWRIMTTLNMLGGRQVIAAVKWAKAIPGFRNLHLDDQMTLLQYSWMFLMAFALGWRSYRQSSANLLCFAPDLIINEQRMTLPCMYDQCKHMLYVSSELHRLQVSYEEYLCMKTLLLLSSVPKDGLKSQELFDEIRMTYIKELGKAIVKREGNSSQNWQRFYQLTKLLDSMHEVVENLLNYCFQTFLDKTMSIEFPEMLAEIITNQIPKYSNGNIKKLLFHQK
Source text: as §1

[6] = target: T18, Transporter, dopamine (DAT) (Homo sapiens, UniProt Q01959)
T18 construct: purchased Eurofins Panlabs Taiwan Ltd
Source text: as §1

Adrenergic β2 = target: T19, Adrenergic β2 (Homo sapiens, UniProt P07550)
T19 construct: purchased Eurofins Panlabs Taiwan Ltd
Source text: as §1

[7] = tested on: Adrenergic α2, non-selective
Source text: as §1

[8] = tested on: Transporter, vesicular monoamine (non-selective)
Source text: as §1

Dopamine D2S = target: T20, Dopamine D2S (Homo sapiens, UniProt P14416)
T20 construct: purchased Eurofins Panlabs Taiwan Ltd
Source text: as §1

Glutamate, AMPA = tested on: Glutamate, AMPA
Source text: as §1

[9] = target: T21, Cholecystokinin CCK2 (CCKB) (Homo sapiens, UniProt P32239)
T21 construct: purchased Eurofins Panlabs Taiwan Ltd
Source text: as §1

Opiate κ (OP2, KOP) = target: T22, Opiate κ (OP2, KOP) (Homo sapiens, UniProt P41145)
T22 construct: purchased Eurofins Panlabs Taiwan Ltd
T22 sequence (P41145 whole entry): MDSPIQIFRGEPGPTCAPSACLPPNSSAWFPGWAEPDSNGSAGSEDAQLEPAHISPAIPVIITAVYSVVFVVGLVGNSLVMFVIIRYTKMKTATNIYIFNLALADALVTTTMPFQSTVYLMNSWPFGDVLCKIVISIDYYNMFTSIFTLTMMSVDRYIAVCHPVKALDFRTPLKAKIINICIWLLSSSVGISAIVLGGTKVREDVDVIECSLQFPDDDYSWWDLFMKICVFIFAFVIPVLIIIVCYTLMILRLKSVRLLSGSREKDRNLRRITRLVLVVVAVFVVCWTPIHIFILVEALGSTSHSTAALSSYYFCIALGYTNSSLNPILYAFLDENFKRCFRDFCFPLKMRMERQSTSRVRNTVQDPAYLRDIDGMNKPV
Source text: as §1

Vasopressin V1A = target: T23, Vasopressin V1A (Homo sapiens, UniProt P37288)
T23 construct: purchased Eurofins Panlabs Taiwan Ltd
T23 sequence (P37288 whole entry): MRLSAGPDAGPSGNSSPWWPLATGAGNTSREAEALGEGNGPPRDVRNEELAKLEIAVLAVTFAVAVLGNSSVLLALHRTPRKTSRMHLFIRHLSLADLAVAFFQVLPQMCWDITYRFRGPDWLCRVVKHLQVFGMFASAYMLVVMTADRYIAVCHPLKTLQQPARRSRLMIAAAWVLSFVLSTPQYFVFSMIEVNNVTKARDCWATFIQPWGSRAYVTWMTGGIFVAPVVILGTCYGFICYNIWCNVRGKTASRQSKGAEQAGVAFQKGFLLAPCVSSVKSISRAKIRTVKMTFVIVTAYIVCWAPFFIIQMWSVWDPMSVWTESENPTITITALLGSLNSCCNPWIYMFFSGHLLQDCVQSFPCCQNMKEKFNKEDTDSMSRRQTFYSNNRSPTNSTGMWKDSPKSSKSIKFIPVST
Source text: as §1

[10] = tested on: Glutamate, NMDA, phencyclidine
Source text: as §1

Bradykinin B1 = target: T24, Bradykinin B1 (Homo sapiens, UniProt P46663)
T24 construct: purchased Eurofins Panlabs Taiwan Ltd
Source text: as §1

GABAB, non-selective = tested on: GABAB, non-selective
Source text: as §1

Serotonin 5-HT1A = target: T25, Serotonin 5-HT1A (Homo sapiens, UniProt P08908)
T25 construct: purchased Eurofins Panlabs Taiwan Ltd
Source text: as §1

Muscarinic M1 = target: T26, Muscarinic M1 (Homo sapiens, UniProt P11229)
T26 construct: purchased Eurofins Panlabs Taiwan Ltd
Source text: as §1

GABAB1B = target: T27, GABAB1B (Homo sapiens, UniProt Q9UBS5)
T27 construct: purchased Eurofins Panlabs Taiwan Ltd
Source text: as §1

Serotonin 5-HT3 = target: T28, Serotonin 5-HT3 (Homo sapiens, UniProt P46098)
T28 construct: purchased Eurofins Panlabs Taiwan Ltd
T28 sequence (P46098 24-478): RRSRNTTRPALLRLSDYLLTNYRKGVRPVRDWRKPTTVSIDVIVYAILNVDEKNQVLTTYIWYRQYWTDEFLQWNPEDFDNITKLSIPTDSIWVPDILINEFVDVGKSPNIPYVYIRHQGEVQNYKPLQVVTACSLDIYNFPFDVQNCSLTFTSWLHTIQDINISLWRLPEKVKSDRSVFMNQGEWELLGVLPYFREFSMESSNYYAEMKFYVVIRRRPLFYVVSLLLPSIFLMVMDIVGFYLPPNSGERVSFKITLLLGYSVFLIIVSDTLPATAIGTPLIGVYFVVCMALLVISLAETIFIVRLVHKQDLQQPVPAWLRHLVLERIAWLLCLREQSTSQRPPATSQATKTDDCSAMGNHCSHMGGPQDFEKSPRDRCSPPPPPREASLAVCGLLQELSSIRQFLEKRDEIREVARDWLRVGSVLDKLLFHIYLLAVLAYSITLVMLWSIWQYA
Source text: as §1

[11] = target: T29, Transporter, serotonin (SERT) (Homo sapiens, UniProt P31645)
T29 construct: purchased Eurofins Panlabs Taiwan Ltd
T29 sequence (P31645 whole entry): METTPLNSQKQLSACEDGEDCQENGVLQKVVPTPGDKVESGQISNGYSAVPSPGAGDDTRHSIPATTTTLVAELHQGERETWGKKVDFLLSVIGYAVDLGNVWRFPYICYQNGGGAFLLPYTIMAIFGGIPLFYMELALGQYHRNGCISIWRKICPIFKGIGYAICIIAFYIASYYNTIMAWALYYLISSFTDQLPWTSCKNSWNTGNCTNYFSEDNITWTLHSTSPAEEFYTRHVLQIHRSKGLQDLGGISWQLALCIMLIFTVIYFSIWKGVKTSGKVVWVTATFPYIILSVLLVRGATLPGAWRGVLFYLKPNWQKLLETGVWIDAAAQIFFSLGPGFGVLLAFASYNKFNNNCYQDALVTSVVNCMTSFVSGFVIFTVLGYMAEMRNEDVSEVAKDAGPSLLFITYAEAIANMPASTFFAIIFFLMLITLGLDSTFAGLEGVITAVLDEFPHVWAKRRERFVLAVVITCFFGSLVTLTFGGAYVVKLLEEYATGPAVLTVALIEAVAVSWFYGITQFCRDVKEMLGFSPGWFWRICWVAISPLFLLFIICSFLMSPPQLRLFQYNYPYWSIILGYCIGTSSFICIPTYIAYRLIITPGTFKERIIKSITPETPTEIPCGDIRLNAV
Source text: as §1

## Cc1c(Cc2ccc(Cl)nc2)cc2c(c1Cl)OCN([C@H]1CCC[C@@H]1O)C2=O [T‐495, 8‐chloro‐6‐((6‐chloropyridin‐3‐yl)methyl)‐3‐((1S,2S)‐2‐hydroxycyclopentyl)‐7‐methyl‐2,3‐dihydro‐4H‐1,3‐benzoxazin‐4‐one]
Endothelin ETA
  inhibition at 10 µM: -4%
Muscarinic M2
  inhibition at 10 µM: 8%
[1]
  % inhibition at 10 μM: 12%
Cannabinoid CB2
  inhibition at 10 µM: 12%
Dopamine D4.2
  % inhibition at 10 μM: 3%
GABAA, chloride channel
  % inhibition at 10 μM: 45%
[2]
  % inhibition at 10 μM: 11%
Histamine H2
  inhibition at 10 µM: 22%
Potassium channel (SKCA)
  % inhibition at 10 μM: 1%
Adenosine A1
  inhibition at 10 µM: 15%
[3]
  inhibition at 10 µM: 8%
Angiotensin AT1
  inhibition at 10 µM: 23%
Transporter, GABA
  % inhibition at 10 μM: -7%
Vasopressin V2
  inhibition at 10 µM: -7%
Androgen (testosterone)
  % inhibition at 10 μM: 3%
Opiate δ1 (OP1, DOP)
  inhibition at 10 µM: 4%
Sodium channel, Site 2
  % inhibition at 10 μM: 1%
Serotonin 5-HT2C
  inhibition at 10 µM: 10%
Dopamine D3
  inhibition at 10 µM: -3%
[4]
  % inhibition at 10 μM: 27%
Sigma, non-selective
  % inhibition at 10 μM: 25%
Serotonin 5-HT2B
  inhibition at 10 µM: 28%
Adrenergic β3
  inhibition at 10 µM: 7%
Adrenergic β1
  inhibition at 10 µM: 4%
Muscarinic M3
  inhibition at 10 µM: 20%
Adenosine A2B
  inhibition at 10 µM: 7%
[5]
  % inhibition at 10 μM: 5%
GABAA, muscimol, central
  % inhibition at 10 μM: -1%
Glucocorticoid
  inhibition at 10 µM: 25%
[6]
  inhibition at 10 µM: 58%
Adrenergic β2
  inhibition at 10 µM: 15%
[7]
  % inhibition at 10 μM: 26%
[8]
  % inhibition at 10 μM: 12%
Dopamine D2S
  inhibition at 10 µM: 15%
Glutamate, AMPA
  % inhibition at 10 μM: 20%
[9]
  inhibition at 10 µM: 10%
Opiate κ (OP2, KOP)
  inhibition at 10 µM: 14%
Vasopressin V1A
  inhibition at 10 µM: 7%
[10]
  % inhibition at 10 μM: 3%
Bradykinin B1
  inhibition at 10 µM: 2%
GABAB, non-selective
  % inhibition at 10 μM: 4%
Serotonin 5-HT1A
  inhibition at 10 µM: 8%
Muscarinic M1
  inhibition at 10 µM: 15%
GABAB1B
  inhibition at 10 µM: 6%
Serotonin 5-HT3
  inhibition at 10 µM: -3%
[11]
  inhibition at 10 µM: 17%
